Results on 20 molecules are retold here after patent publication US12173018B2, “Penicillin-binding protein inhibitors” (priority 2018, dated 2024).

A value given as a limit tells only on which side of the number the result lay.

E. coli PBP3, sequence (P0AD68 whole entry): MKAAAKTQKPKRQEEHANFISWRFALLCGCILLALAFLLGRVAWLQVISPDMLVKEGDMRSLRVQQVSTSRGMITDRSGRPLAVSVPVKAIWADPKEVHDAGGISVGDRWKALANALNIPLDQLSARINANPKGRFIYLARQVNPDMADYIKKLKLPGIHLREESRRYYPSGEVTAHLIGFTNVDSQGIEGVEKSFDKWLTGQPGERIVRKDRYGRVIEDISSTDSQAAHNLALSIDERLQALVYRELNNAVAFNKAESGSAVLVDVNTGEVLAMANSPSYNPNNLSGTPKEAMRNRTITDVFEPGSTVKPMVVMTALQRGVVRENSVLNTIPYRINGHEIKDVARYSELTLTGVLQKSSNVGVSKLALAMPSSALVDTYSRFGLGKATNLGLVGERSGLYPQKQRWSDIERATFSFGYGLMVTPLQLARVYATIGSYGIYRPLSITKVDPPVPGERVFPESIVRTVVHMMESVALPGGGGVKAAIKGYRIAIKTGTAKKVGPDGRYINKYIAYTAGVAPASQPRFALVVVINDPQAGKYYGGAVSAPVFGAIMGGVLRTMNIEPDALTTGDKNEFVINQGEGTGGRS

One assay addresses E. coli PBP3 (Escherichia coli (strain K12), UniProt P0AD68). Put plainly: E. coli PBP3 Bocillin-FL fluorescence polarization competition binding assay.
Details: not given
From the text: To determine the ability of boronic acid-based test PBP inhibitors to bind Penicillin Binding Proteins (PBPs), Bocillin-FL (fluorescently-labeled penicillin V; ThermoFisher Scientific) was used in a fluorescence polarization (FP) competition binding assay to assess inhibitor binding to PBP2, PBP3 or PBP4 from Escherichia coli. PBPs were cloned and purified as described previously (King, D. T, et al., ACS Infectious Diseases 2015, 1, 175-184). To establish assay conditions for competition binding, an enzyme titration/saturation binding experiment was initially performed. Bocillin-FL was prepared at 0.2 μM in a buffer comprised of 50 mM Hepes (pH 8.0), 300 mM NaCl and 5% (v/v) glycerol. Saturation binding was performed by mixing 40 μl of PBP solutions ranging in concentrations from 0-12 μM with 40 μl of the 0.2 μM Bocillin-FL solution, in individual wells of a black 384-well microplate. FP was measured immediately upon mixing (Excitation, 490 nm; Emission, 520 nm; g-factor, 0.96), using a Cytation3 (BioTek) microplate reader and measured continuously for up to 120 minutes. […] Assays (80 μl final volume) were performed with PBPs at a final concentration of 1.5 μM, Bocillin-FL at 0.1 μM and beta-lactam concentrations that ranged from 0-1000 μM. […] Bocillin-FL was added and the FP immediately measured for 60 minutes (90 minutes for PBP2). The beta-lactam potency was reported as the concentration of beta-lactam required to reduce binding of Bocillin-FL by […] (EC50). […] Binding assays for boronic acid PBP inhibitors were performed in an identical fashion.
(Fluorescence polarisation rises when a labelled molecule tumbles more slowly, as on binding a larger partner.)
With `CCN1CCN(C(=O)NC(C(=O)N[C@H]2Cc3ccc(F)c(C(=O)O)c3OB2O)c2cscn2)C(=O)C1=O` (stereo partly drawn) [Example 165, (3R)-3-(2-(4-ethyl-2,3-dioxopiperazine-1-carboxamido)-2-(thiazol-4-yl)acetamido)-7-fluoro-2-hydroxy-3,4-dihydro-2H-benzo[e][1,2]oxaborinine-8-carboxylic acid], the EC50 was in the range of 30 to 500 µM.
`CCN1CCN(C(=O)NC(CC(=O)N[C@H]2Cc3cccc(C(=O)O)c3OB2O)c2cc(O)c(O)c(Br)c2)C(=O)C1=O` (stereo partly drawn) [Example 42, (3R)-3-(3-(3-bromo-4,5-dihydroxyphenyl)-3-(4-ethyl-2,3-dioxopiperazine-1-carboxamido)propanamido)-2-hydroxy-3,4-dihydro-2H-benzo[e][1,2]oxaborinine-8-carboxylic acid] registered an EC50 of 30 to 500 µM.
Take `CCN1CCN(C(=O)NC(C(=O)N[C@H]2Cc3cccc(C(=O)O)c3OB2O)c2csc(N)n2)C(O)C1=O` (stereo partly drawn) [Example 193, (3R)-3-(2-(2-aminothiazol-4-yl)-2-(4-ethyl-2-hydroxy-3-oxopiperazine-1-carboxamido)acetamido)-2-hydroxy-3,4-dihydro-2H-benzo[e][1,2]oxaborinine-8-carboxylic acid]: the EC50 lay in the range of 30 to 500 µM.
The same measure, in the same setting: the same measure for `CCN1CCN(C(=O)NC(C(=O)N[C@H]2Cc3cccc(C(=O)O)c3OB2O)c2ccc(O)c(OCCNC(=O)OCc3ccccc3)c2)C(=O)C1=O` (stereo partly drawn) [Example 50, (3R)-3-(2-(3-(2-(((benzyloxy)carbonyl)amino)ethoxy)-4-hydroxyphenyl)-2-(4-ethyl-2,3-dioxopiperazine-1-carboxamido)acetamido)-2-hydroxy-3,4-dihydro-2H-benzo[e][1,2]oxaborinine-8-carboxylic acid]: 30 to 500 µM; for `CCN1CCN(C(=O)N[C@@H](C(=O)N[C@H]2Cc3ccc(F)c(C(=O)O)c3OB2O)[C@H](O)C(F)(F)F)C(=O)C1=O` [Example 158, (R)-3-((2R,3S)-2-(4-ethyl-2,3-dioxopiperazine-1-carboxamido)-4,4,4-trifluoro-3-hydroxybutanamido)-7-fluoro-2-hydroxy-3,4-dihydro-2H-benzo[e][1,2]oxaborinine-8-carboxylic acid]: 30 to 500 µM; for `CCN1CCN(C(=O)NC(C(=O)N[C@H]2Cc3cccc(C(=O)O)c3OB2O)C2CCCO2)C(=O)C1=O` (stereo partly drawn) [Example 122, (3R)-3-(2-(4-ethyl-2,3-dioxopiperazine-1-carboxamido)-2-(tetrahydrofuran-2-yl)acetamido)-2-hydroxy-3,4-dihydro-2H-benzo[e][1,2]oxaborinine-8-carboxylic acid]: 30 to 500 µM.
`CCN1CCN(C(=O)NC(C(=O)N[C@H]2Cc3c(F)cc(F)c(C(=O)O)c3OB2O)c2csc(N)n2)C(=O)C1=O` (stereo partly drawn) [Example 184, (3R)-3-(2-(2-aminothiazol-4-yl)-2-(4-ethyl-2,3-dioxopiperazine-1-carboxamido)acetamido)-5,7-difluoro-2-hydroxy-3,4-dihydro-2H-benzo[e][1,2]oxaborinine-8-carboxylic acid] registered an EC50 of 30 to 500 µM.
Molecule `CCN1CCN(C(=O)NC(C(=O)N[C@H]2Cc3cc(F)c(F)c(C(=O)O)c3OB2O)c2csc(N)n2)C(=O)C1=O` (stereo partly drawn) [Example 175, (3R)-3-(2-(2-aminothiazol-4-yl)-2-(4-ethyl-2,3-dioxopiperazine-1-carboxamido)acetamido)-6,7-difluoro-2-hydroxy-3,4-dihydro-2H-benzo[e][1,2]oxaborinine-8-carboxylic acid] came in with an EC50 of 30 to 500 µM.
For the molecule `CCN1CCN(C(=O)NC(C(=O)N[C@H]2Cc3cccc(C(=O)O)c3OB2O)c2cccc(OC)n2)C(=O)C1=O` (stereo partly drawn) [Example 120, (3R)-3-(2-(4-ethyl-2,3-dioxopiperazine-1-carboxamido)-2-(6-methoxypyridin-2-yl)acetamido)-2-hydroxy-3,4-dihydro-2H-benzo[e][1,2]oxaborinine-8-carboxylic acid], the EC50 fell in the range of 30 to 500 µM.
The same measure, in the same setting: under `CCN1CCN(C(=O)NC(C(=O)N[C@H]2Cc3cccc(C(=O)O)c3OB2O)[C@H](O)C(F)(F)F)C(=O)C1=O` (mixture of isomers) [Example 157, (3R)-3-((3S)-2-(4-ethyl-2,3-dioxopiperazine-1-carboxamido)-4,4,4-trifluoro-3-hydroxybutanamido)-2-hydroxy-3,4-dihydro-2H-benzo[e][1,2]oxaborinine-8-carboxylic acid] stands over 500 µM; under `CCN1CCN(C(=O)N[C@H](C(=O)N[C@H]2Cc3ccc(F)c(C(=O)O)c3OB2O)c2ccsc2)C(=O)C1=O` [Example 139, (R)-3-((S)-2-(4-ethyl-2,3-dioxopiperazine-1-carboxamido)-2-(thiophen-3-yl)acetamido)-7-fluoro-2-hydroxy-3,4-dihydro-2H-benzo[e][1,2]oxaborinine-8-carboxylic acid], 30 to 500 µM.
The molecule `CCN1CCN(C(=O)N[C@@H](C(=O)N[C@H]2Cc3cccc(C(=O)O)c3OB2O)[C@H](C)OC)C(=O)C1=O` [Example 146, (R)-3-((2R,3S)-2-(4-ethyl-2,3-dioxopiperazine-1-carboxamido)-3-methoxybutanamido)-2-hydroxy-3,4-dihydro-2H-benzo[e][1,2]oxaborinine-8-carboxylic acid] returned an EC50 of 30 to 500 µM.

The assay is the same for the next values; noted with them: fluorescence polarization competition binding with Bocillin-FL; read-out: E. coli K12 PBP3 Potency.
Take `CCN1CCN(C(=O)N[C@@H](C(=O)N[C@H]2Cc3cccc(C(=O)O)c3OB2O)[C@H](O)C(F)F)C(=O)C1=O` [Example 173, (R)-3-((2R,3S)-2-(4-ethyl-2,3-dioxopiperazine-1-carboxamido)-4,4-difluoro-3-hydroxybutanamido)-2-hydroxy-3,4-dihydro-2H-benzo[e][1,2]oxaborinine-8-carboxylic acid]: the EC50 was over 500 µM.
For the molecule `CCN1CCN(C(=O)N[C@H](C(=O)N[C@H]2Cc3ccc(F)c(C(=O)O)c3OB2O)[C@H](O)C(F)(F)F)C(=O)C1=O` [Example 159, (R)-3-((2S,3S)-2-(4-ethyl-2,3-dioxopiperazine-1-carboxamido)-4,4,4-trifluoro-3-hydroxybutanamido)-7-fluoro-2-hydroxy-3,4-dihydro-2H-benzo[e][1,2]oxaborinine-8-carboxylic acid], the EC50 was over 500 µM.
The same measure, in the same setting: the same measure for `CCN1CCN(C(=O)N[C@H](C(=O)N[C@H]2Cc3ccc(F)c(C(=O)O)c3OB2O)[C@H](O)C(F)F)C(=O)C1=O` [Example 164, (R)-3-((2S,3S)-2-(4-ethyl-2,3-dioxopiperazine-1-carboxamido)-4,4-difluoro-3-hydroxybutanamido)-7-fluoro-2-hydroxy-3,4-dihydro-2H-benzo[e][1,2]oxaborinine-8-carboxylic acid]: over 500 µM.
As to `CCN1CCN(C(=O)N[C@@H](C(=O)N[C@H]2Cc3ccc(F)c(C(=O)O)c3OB2O)[C@H](O)C(F)F)C(=O)C1=O` [Example 163, (R)-3-((2R,3S)-2-(4-ethyl-2,3-dioxopiperazine-1-carboxamido)-4,4-difluoro-3-hydroxybutanamido)-7-fluoro-2-hydroxy-3,4-dihydro-2H-benzo[e][1,2]oxaborinine-8-carboxylic acid], the EC50 was under 30 µM.
Same read-out and setting: under `CCN1CCN(C(=O)N[C@H](C(=O)N[C@H]2Cc3cccc(C(=O)O)c3OB2O)[C@H](C)OC)C(=O)C1=O` [Example 147, (R)-3-((2S,3S)-2-(4-ethyl-2,3-dioxopiperazine-1-carboxamido)-3-methoxybutanamido)-2-hydroxy-3,4-dihydro-2H-benzo[e][1,2]oxaborinine-8-carboxylic acid] stands over 500 µM; under `CCN1CCN(C(=O)NC(C(=O)N[C@H]2Cc3cccc(C(=O)O)c3OB2O)c2cccc(O)c2O)C(=O)C1=O` (stereo partly drawn) [Example 44, (3R)-3-(2-(2,3-dihydroxyphenyl)-2-(4-ethyl-2,3-dioxopiperazine-1-carboxamido)acetamido)-2-hydroxy-3,4-dihydro-2H-benzo[e][1,2]oxaborinine-8-carboxylic acid], over 500 µM.
Still for that read-out and setting: under `CCCN1CCN(C(=O)N[C@@H](C(=O)N[C@H]2Cc3ccc(F)c(C(=O)O)c3OB2O)[C@@H](C)O)C(=O)C1=O` [Example 133, (R)-3-((2R,3R)-2-(2,3-dioxo-4-propylpiperazine-1-carboxamido)-3-hydroxybutanamido)-7-fluoro-2-hydroxy-3,4-dihydro-2H-benzo[e][1,2]oxaborinine-8-carboxylic acid] stands over 500 µM; under `CCN1CCN(C(=O)N[C@H](C(=O)N[C@H]2Cc3cccc(C(=O)O)c3OB2O)[C@H](O)C(F)F)C(=O)C1=O` [Example 174, (R)-3-((2S,3S)-2-(4-ethyl-2,3-dioxopiperazine-1-carboxamido)-4,4-difluoro-3-hydroxybutanamido)-2-hydroxy-3,4-dihydro-2H-benzo[e][1,2]oxaborinine-8-carboxylic acid], over 500 µM.
